# Results as given in ChEMBL document CHEMBL6120974, “Hydrazide-Based Class I Selective HDAC Inhibitors Completely Reverse Chemoresistance Synergistically in Platinum-Resistant Solid Cancer Cells” (J Med Chem, 2024).
# Calls of active or inactive are those of the source. No cut-off for these calls is given here.
# Key:
# [1] = target: T1, Protein deacetylase HDAC6 (Homo sapiens, UniProt Q9UBN7); assay: Inhibition of N-terminal GST-tagged full length recombinant human HDAC6 (1 to 1215 end residues) expressed in sf9 cells using ZMAL (Z-Lys(Ac)-AMC as fluorogenic substrate preincubated with compound for 60 mins followed by substrate addition and measured after 90 mins by fluorescence based microplate reader analysis
# T1 sequence (Q9UBN7 whole entry): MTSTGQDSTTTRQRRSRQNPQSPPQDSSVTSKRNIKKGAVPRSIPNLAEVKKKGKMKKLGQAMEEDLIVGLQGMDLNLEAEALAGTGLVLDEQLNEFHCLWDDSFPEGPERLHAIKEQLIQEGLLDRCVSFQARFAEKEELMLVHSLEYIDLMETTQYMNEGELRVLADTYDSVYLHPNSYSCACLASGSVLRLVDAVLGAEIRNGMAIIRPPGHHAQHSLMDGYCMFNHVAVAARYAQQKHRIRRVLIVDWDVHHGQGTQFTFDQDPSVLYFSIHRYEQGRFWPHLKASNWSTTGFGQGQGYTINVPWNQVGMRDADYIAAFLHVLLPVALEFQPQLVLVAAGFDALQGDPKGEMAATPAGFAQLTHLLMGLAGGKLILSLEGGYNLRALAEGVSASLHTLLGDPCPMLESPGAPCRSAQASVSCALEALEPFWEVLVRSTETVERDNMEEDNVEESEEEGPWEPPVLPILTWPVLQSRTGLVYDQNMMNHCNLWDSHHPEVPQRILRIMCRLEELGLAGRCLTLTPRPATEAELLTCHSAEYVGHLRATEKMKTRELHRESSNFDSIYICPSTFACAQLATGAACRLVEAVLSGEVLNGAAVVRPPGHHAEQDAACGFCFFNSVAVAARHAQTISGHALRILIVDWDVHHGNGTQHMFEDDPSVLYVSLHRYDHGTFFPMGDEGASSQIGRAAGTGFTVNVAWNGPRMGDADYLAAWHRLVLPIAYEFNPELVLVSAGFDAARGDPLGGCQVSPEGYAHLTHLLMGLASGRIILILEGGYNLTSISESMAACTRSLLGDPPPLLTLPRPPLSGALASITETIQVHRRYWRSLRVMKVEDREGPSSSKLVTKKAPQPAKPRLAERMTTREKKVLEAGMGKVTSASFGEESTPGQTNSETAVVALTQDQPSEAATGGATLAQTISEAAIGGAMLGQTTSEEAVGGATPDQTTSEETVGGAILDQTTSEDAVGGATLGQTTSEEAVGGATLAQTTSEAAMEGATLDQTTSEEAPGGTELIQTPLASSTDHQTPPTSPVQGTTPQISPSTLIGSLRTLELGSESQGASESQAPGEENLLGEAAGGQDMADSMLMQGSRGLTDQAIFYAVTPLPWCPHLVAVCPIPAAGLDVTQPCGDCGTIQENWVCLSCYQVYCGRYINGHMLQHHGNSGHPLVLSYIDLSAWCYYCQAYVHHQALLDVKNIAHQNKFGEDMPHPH
# [2] = test system: A2780; assay: Induction of apoptosis in human A2780 cells assessed as caspase-3/7 activation at 2 uM incubated for 48 hrs by capase3/7 green dye based analysis; assay type: functional, cell-based
# [3] = test system: CAL-27; assay: Induction of apoptosis in human CAL-27 cells assessed as increase in caspase 3/7 activation at 0.316 uM in presence of cisplatin preincubated with compound for 48 hrs co-treated with cisplatin and measured after 24 hrs by capase3/7 green dye based analysis; assay type: functional, cell-based; conditions: time 72.0 hrs
# [4] = test system: CAL-27; assay: Induction of apoptosis in human CAL-27 cells assessed as apoptotic nuclei at sub-G1 phase at 0.316 uM incubated for 48 hrs by flow cytometric analysis; assay type: functional, cell-based
# [5] = test system: Cal27CisR; assay: Induction of apoptosis in cisplatin resistant human Cal27CisR cells assessed as apoptotic nuclei at sub-G1 phase at 0.316 uM incubated for 48 hrs by flow cytometric analysis; assay type: functional, cell-based
# [6] = test system: A2780cisR; assay: Induction of DNA damage in cisplatin resistant human A2780 cisR cells assessed as increase in gammaH2AX formation at 2 uM in presence of cisplatin at 16 uM pretreated with compound for 48 hrs prior to addition of cisplatin and measured after 24 hrs by Hoechst 33342 staining based Immunofluorescence analysis; assay type: functional, cell-based; conditions: time 72.0 hrs
# [7] = test system: CAL-27; assay: Induction of apoptosis in human CAL-27 cells assessed as increase in Bcl-2 protein level at 0.316 uM incubated for 48 hrs by Immunoblotting analysis; assay type: functional, cell-based
# [8] = test system: A2780; assay: Induction of apoptosis in human A2780 cells assessed as decrease in Bcl-2 protein level at 0.75 uM incubated for 48 hrs by Immunoblotting analysis; assay type: functional, cell-based
# [9] = test system: A2780; assay: Induction of apoptosis in human A2780 cells assessed as decrease in Bcl-2 protein level at 0.75 uM in presence of cisplatin at 3.5 uM preincubated with compound for 48 hrs prior to addition of cisplatin and measured after 24 hrs by Immunoblotting analysis; assay type: functional, cell-based; conditions: time 72.0 hrs
# [10] = test system: A2780; assay: Induction of cell cycle arrest in human A2780 cells assessed as increase in p21 expression at 0.75 uM incubated for 48 hrs by Western blotting analysis; assay type: functional, cell-based
# [11] = test system: CAL-27; assay: Downregulation of survivin expression in human CAL-27 cells at 0.316 uM incubated for 48 hrs by Immunoblotting analysis; assay type: functional, cell-based
# [12] = test system: CAL-27; assay: Downregulation of survivin expression in human CAL-27 cells at 0.316 uM in presence of cisplatin at 3 uM preincubated with compound for 48 hrs prior to addition of cisplatin and measured after 24 hrs by Immunoblotting analysis; assay type: functional, cell-based; conditions: time 72.0 hrs
# [13] = test system: A2780; assay: Downregulation of survivin expression in human A2780 cells at 0.75 uM in presence of cisplatin at 3.5 uM preincubated with compound for 48 hrs prior to addition of cisplatin and measured after 24 hrs by Immunoblotting analysis; assay type: functional, cell-based; conditions: time 72.0 hrs
# [14] = test system: A2780cisR; assay: Effect on survivin expression in human cisplatin resistant human A2780 cisR cells at 2 uM incubated for 48 hrs by Immunoblotting analysis; assay type: functional, cell-based
# [15] = test system: A2780cisR; assay: Effect on survivin expression in human cisplatin resistant human A2780 cisR cells at 2 uM in presence of cisplatin at 16 uM preincubated with compound for 48 hrs prior to addition of cisplatin and measured after 24 hrs by Immunoblotting analysis; assay type: functional, cell-based; conditions: time 72.0 hrs
# [16] = test system: A2780; assay: Induction of apoptosis in human A2780 cells assessed as increase in BIM expression at 0.75 uM in presence of cisplatin at 3.5 uM preincubated with compound for 48 hrs prior to addition of cisplatin and measured after 24 hrs by Immunoblotting analysis; assay type: functional, cell-based; conditions: time 72.0 hrs
# [17] = test system: A2780cisR; assay: Induction of apoptosis in cisplatin resistant human A2780 cisR cells assessed as increase in apoptotic nuclei at sub-G1 phase at 2 uM in presence of cisplatin at 16 uM preincubated with compound for 48 hrs prior to addition of cisplatin and measured after 24 hrs by flow cytometric analysis; assay type: functional, cell-based; conditions: time 72.0 hrs
# [18] = cells; conditions: Homo sapiens, Cal27CisR, 72 h
# Description: Cytotoxicity against cisplatin resistant human Cal27CisR cells assessed as reduction in cell viability incubated for 72 hrs by MTT assay
# [19] = cells; conditions: Homo sapiens, A2780cisR
# Description: Inhibition of class IIa/8 HDAC (unknown origin) in cisplatin resistant human A2780 cisR cells using Boc-Lys(TFA)-AMC as substrate preincubated with compound for 18 hrs followed by substrate addition and measured after 3 hrs by NOVOstar microplate reader analysis
# [20] = cells; conditions: Homo sapiens, CAL-27
# Description: Inhibition of class IIa/8 HDAC (unknown origin) in human CAL-27 cells using Boc-Lys(TFA)-AMC as substrate preincubated with compound for 18 hrs followed by substrate addition and measured after 3 hrs by NOVOstar microplate reader analysis
# [21] = cells; conditions: Homo sapiens, Cal27CisR
# Description: Inhibition of class IIa/8 HDAC (unknown origin) in cisplatin resistant human Cal27CisR cells using Boc-Lys(TFA)-AMC as substrate preincubated with compound for 18 hrs followed by substrate addition and measured after 3 hrs by NOVOstar microplate reader analysis
# [22] = test system: MV4-11; assay: cells; conditions: Homo sapiens, MV4-11, 72 h
# Description: Cytotoxicity against human MV4-11 cells harboring wild type p53 assessed as cell viability incubated for 72 hrs by MTT assay
Structure (SMILES),IC50 [1] [µM],Activity [2],Activity [3],Activity [4],Activity [5],Activity [6],Activity [7],Activity [8],Activity [9],Activity [10],Activity [11],Activity [12],Activity [13],Activity [14],Activity [15],Activity [16],Activity [17],IC50 [18] [nM],IC50 [19] [µM],IC50 [20] [nM],further results
CCCNNC(=O)c1ccc(CN(CC(=O)NCc2ccccc2)C(=O)c2ccc(N(C)C)cc2)cc1,> 10,Active; Remarkable Activation Observed,Active,Active; Moderate Percentage Of Apoptotic Nuclei Observed,Active; Moderate Percentage Of Apoptotic Nuclei Observed,inactive,Not active; Slight Increase Observed,Active,Active,Active,Active,Active,Active,inactive,inactive,inactive,inactive,801,12.5,1020,IC50 [21]: 2320 nM; IC50 [22]: 194 nM
CCCCNNC(=O)c1ccc(CN(CC(=O)NCc2ccccc2)C(=O)c2ccc(N(C)C)cc2)cc1,> 3.33,Active; Remarkable Activation Observed,Active,Active; Moderate Percentage Of Apoptotic Nuclei Observed,Active; Moderate Percentage Of Apoptotic Nuclei Observed,inactive,Not active; Slight Increase Observed,Active,Active,Active,Active,Active,Active,inactive,inactive,inactive,inactive,968,11,1020,IC50 [21]: 2220 nM; IC50 [22]: 212 nM
